Each structure is given as a SMILES string. pIC50: −log10 of the molar value. “Also recorded” adds a separate entry of the source.

The subject of series [1] is HepG2 cells. In words: 3-day CCK-8 cytotoxicity assay, HepG2. The series is classed as cell-based, human. The note with it: HepG2, 72 hours. Here is the method:
(§1) Mammalian 293T and HepG2 cells were cultured and passaged, trypsinized, and resuspended in DMEM. The cells were counted using a hemocytometer and diluted to 10^5 cells/mL. The cell suspension was evenly added to a 96-well plate, with 100 μL per well. After the cells were subjected to attachment culture in a 37° C. incubator (5% CO2) for 24 hours, the inhibitors of the corresponding concentrations were added. Gradient dilution (11 concentration gradients) was performed at a 1/2 ratio according to the doubling gradient dilution. Complete culture medium was used as a negative control, and DMEM was used as a background control. After the culture in a 37° C. incubator (5% CO2) for 72 hours, 10 µL of CCK8 reagent was added to each well. The plate was incubated in a 37° C. incubator (5% CO2) for 1 hour. The absorbance at a 450 nm wavelength was read by a microplate reader, and a survival rate was calculated based on the absorbance.
(§2) [formula] • where Abtreated, Abbackground, and Abcontrol represent the absorbance values of the small molecule drug group, the DMEM control group, and the untreated control group, respectively. The inhibition rate of the drug was calculated based on the survival rate at different concentrations, and the growth inhibition curve was summarized as inhibition rate-drug concentration. The IC50 was calculated using SPSS 18.0 software.
(Tetrazolium assays rely on reduction of a dye to a coloured formazan, in cell work by metabolically active cells.)

The test system of series [2] is 293T cells. In words: 3-day CCK-8 cytotoxicity assay, 293T. The series is classed as cell-based, human. Particulars: 72 hours. The protocol:
as §1, §2

Series [3] in a line: Liver microsomal metabolism, human. Set-up: half-life / CLint scaled: dose or concentration left out as unconfirmed. The series is classed as in vitro ADME. Here is the method: (§3) In the microsomal metabolism assay, the inhibitor was incubated with liver microsomes from different species; the reaction was terminated at different time points; the remaining amount of the inhibitor in the samples at each time point was determined using LC-MS/MS. The percentage of parent drug remaining was calculated, and the hepatic intrinsic clearance CLinit(liver) was finally obtained. Testosterone was used as a control in this study to verify the reliability of the experimental system. The detailed procedures were as follows:
(§4) The incubation system consisted of 0.1 M Tris-HCl buffer (pH 7.4), 1 mM MgCl2, 1 mM NADPH (Nicotinamide Adenine Dinucleotide Phosphate), and 0.5 mg/mL microsomes, and the final reaction volume was 200 μL. […] inhibitor and testosterone were pre-incubated with liver microsomes from different species in a 37° C. water bath for 5 minutes. 100 μL of NADPH was added to initiate the reaction. 400 μL of stop solution was added to terminate the reaction at time points of 0 minutes, 5 minutes, 15 minutes, 30 minutes, 45 minutes, and 60 minutes. 40 μL of internal standard was added, and the mixture was vortexed for 5 minutes and centrifuged at […] and 4° C. for 5 minutes. 100 μL of the supernatant was taken and diluted with 100 μL of water for injection and analysis. The retention time of the compound and the internal standard, chromatogram acquisition, and chromatogram integration were processed by Analyst 1.6.3 software. The compound was subjected to linear regression with a weighting coefficient of 1/X^2 to calculate the concentration at each time point. The natural logarithm of the percentage remaining at each time point was linearly regressed against the incubation time to calculate the in vitro elimination rate constant k. The half-life (T1/2) and hepatic intrinsic clearance CLint(liver) of the test article were calculated according to the following formula.
(§5) hepatic microsomal clearance CLint(mic)=0.693/half-life/mg microsomal protein per mL; hepatic intrinsic clearance CLint(liver)=hepatic microsomal clearance×mg microsomal protein/gram of liver×liver weight-to-body weight ratio. The liver weight-to-body weight ratios of mice, rats, and humans were […], respectively; the average value of mg microsomal protein/gram of liver in different species was 45.
On the technique in general: Microsomes from liver hold many membrane-bound enzymes, among them those of drug oxidation.

Series [4] can be described thus: Liver microsomal metabolism, rat. The series is classed as in vitro ADME. On the set-up: half-life / CLint scaled: dose or concentration left out as unconfirmed. Here is the method: as §3, §4, §5
Series [5] relates to artemisinin-resistant Plasmodium falciparum strains. In words: Ring-stage survival assay against resistant Plasmodium falciparum strains. It counts as cell-based. The note with it: in combination with DHA, 6 hours exposure, then 66 hours culture. Here is the method:
This experiment aimed to evaluate the killing effect of the triazoloquinoline derivative as a combination drug against drug-resistant Plasmodium falciparum strains using the gold-standard drug resistance assay. The detailed implementation procedures were as follows: • 1. Culture of Plasmodium falciparum when the parasitemia was greater than 4% and most parasites were at the ring (R) stage, the culture was synchronized with Sorbitol for 10 minutes and vortexed for 5 seconds; • 2. Synchronization with sorbitol was repeated 30-48 hours later (depending on the parasite stage); • 3. Smear test under microscope after approximately 30 hours of culture: if the proportion of the mature schizont (S) stage (10-12 merozoites) was greater than 0.5%, the operation proceeded to procedure 4; if the proportion of the mature S stage (10-12 merozoites) was less than 0.5%, procedure 2 was repeated; • 4. […] After the culture was mixed well, approximately 200 μL of the culture was pipetted and centrifuged for smear test under microscope (this could be done approximately 10 minutes in advance); the parasitemia was quickly calculated (must be greater than 0.5%); • 7. […] After 66 hours of the culture, smear test under microscope was performed to calculate the parasitemia, and the survival rate was calculated.

Series [6] has as its system PfAP2-O5 target genes (invasion genes). Put plainly: RNA-seq analysis of invasion gene expression after inhibitor treatment. It counts as cell-based, Plasmodium falciparum. Particulars: wild-type strain treated with 1 M triazoloquinoline derivative for one life cycle. The protocol: Wild-type and pfap2-o5 conditional knockdown Plasmodium falciparum strains were treated with the triazoloquinoline derivative represented by formula (I), respectively. After strict synchronization of the Plasmodium falciparum strains, […] triazoloquinoline derivative was added one life cycle in advance. After one life cycle, the ring (10-15 hours), trophozoite (28-32 hours), and schizont (40-44 hours) stage cultures of the wild-type and pfap2-o5 conditional knockdown Plasmodium falciparum strains treated with the triazoloquinoline derivative were collected. Total RNA was purified using the Direct-zol RNA kit, strand-specific RNA sequencing libraries were then prepared using KAPA mRNA beads, and the RNA was fragmented. The libraries were sequenced on the Illumina HiSeq X Ten system, and the differential gene expression between the two Plasmodium falciparum strains after inhibitor treatment was analyzed.

The subject of series [7] is Plasmodium falciparum. In words: 3-day SYBR Green I in vitro growth inhibition of Plasmodium falciparum. Particulars: wild-type Plasmodium falciparum, 72 hours, read-out: IC50 of growth inhibition on in vitro culture of Plasmodium falciparum. The series is classed as cell-based. The protocol: 100 μL of complete culture medium was added to a 96-well plate. 200 μL of a compound stock solution with a concentration of 200 μM was added to the first well. Gradient dilution (11 concentration gradients) was performed at a 1/2 ratio according to the doubling gradient dilution. Dihydroartemisinin (DHA) was used as a positive control, complete culture medium was used as a negative control, and red blood cells without Plasmodium falciparum or compounds were used as a background control.
100 μL of wild-type Plasmodium falciparum culture (1% parasitemia, 4% hematocrit) was accurately added to each well, so that finally, the parasitemia in each well was 0.5%, and the hematocrit was 2%. The final concentration gradients of the compound were 100 μM, 50 μM, 25 μM, 12.5 μM, 6.25 μM, 3.125 μM, 1.5625 μM, 0.78125 μM, 0.390625 μM, 0.195313 μM, and 0.097656 μM. […] After the incubation was completed, a fluorescence intensity was recorded on a microplate reader with an excitation wavelength of 485 nm and an emission wavelength of 535 nm. The inhibition rate of the small molecule inhibitor on the growth of Plasmodium falciparum was calculated based on the fluorescence intensity.
[formula] • where Fltreated, Flbackground, and Flcontrol represent the fluorescence intensity values of the candidate small molecule drug group, the red blood cell control group, and the untreated control group, respectively. […]

The nature of series [8]: Liver microsomal metabolism, mouse. It counts as in vitro ADME. Set-up: half-life / CLint scaled: dose or concentration left out as unconfirmed. The protocol:
as §3, §4, §5

For `Cc1cccc(-c2nnc3c4ccccc4nc(N4CCN(C(=O)Cc5ccccc5)CC4)n23)c1` [triazoloquinoline derivative], the “cytotoxicity to mammalian cells (HepG2)” value in series [1] is listed as “low cytotoxicity; also recorded: almost no toxicity”. Further, the “cytotoxicity to mammalian cells (293T)” value in series [2] is recorded as “low cytotoxicity; also recorded: almost no toxicity”. The clearance classification result is “moderate-clearance compound” in series [3] (human liver microsomes), “moderate-clearance compound” in series [4] (rat liver microsomes) and “high-clearance compound” in series [8] (mouse liver microsomes). The k in series [3] (human liver microsomes, 0.5 mg/mL, NADPH) was 0.0053 min⁻¹; in series [4] (rat liver microsomes, 0.5 mg/mL, NADPH) it was 0.0165 min⁻¹; in series [8] (mouse liver microsomes, 0.5 mg/mL, NADPH) it was 0.0432 min⁻¹. Besides, the CLint scaled turned out to be 0.512 L/h/kg in series [3] (liver microsomes, pH 7.4, human, hepatic intrinsic clearance scaled from microsomes); 3.56 L/h/kg in series [4] (liver microsomes, pH 7.4, rat, hepatic intrinsic clearance scaled from microsomes); 20.5 L/h/kg in series [8] (liver microsomes, pH 7.4, mouse, hepatic intrinsic clearance scaled from microsomes). Further, the half-life in series [3] (pH 7.4, human liver microsomes) worked out at 131 min; in series [4] (pH 7.4, rat liver microsomes), 42 min; in series [8] (pH 7.4, mouse liver microsomes) it was 16 min. Moreover, in series [5], the “killing effect against artemisinin-resistant strains (ring-stage survival)” value is listed as “more effectively kill”. Besides, the “decrease of expression levels of merozoite surface structural protein family genes (mRNA level)” value in series [6] is “more than 1.5 fold”. For the same molecule, the pIC50 in series [7] was 5.58.

In general, CLint scaled refers to the capacity of the preparation to metabolise the compound, expressed as a volume cleared per time. As usually defined, the half-life is how long it takes for the measured level to halve. Usually pIC50 stands for the negative decadic logarithm of the IC50, by convention in mol/L.
